According to patent US20020055470A1, “Circumvention of human tumor drug resistance” (CITY OF HOPE, priority 1987, published 2002):
Read-outs that look alike come from different tables or passages of the source.

How the values were obtained:
Format in all cases: cell-based, human
A2780DDP [1] = experiment: Dual labeled (14C/3H) DNA synthesis and degradation in response to cisplatin; incorporation of labelled nucleoside analogs
Source text: A dual labeled (^14C/^3H) experiment was designed to measure simultaneously DNA synthesis and degradation in response to cisplatin.

K562S = experiment: Inhibition of cell growth, Table VI
Experimental: (§1) Table VI includes EC50 data further exemplifying the invention. The data reported by Table VI was obtained by substantially the same procedure as that described with respect to Table III. In Table VI, “(C)” indicates continuous exposure, “(1 h)” and “(2 h)” indicate exposure for 1 hour and 2 hours; “HU” indicates hydroxyurea.

K562-araC = experiment: Inhibition of cell growth, Table VI; conditions: K562-araC
Experimental: as §1

HCF-7 DDP = experiment: Inhibition of cell growth, Table VI; conditions: for EC50: HCF-7 DDP
Experimental: as §1

CEMDDP = experiment: Cytotoxicity by continuous exposure in CEM cells
K562-VP16 = experiment: Inhibition of cell growth, Table VI
A2780S [2] = experiment: Inhibition of cell growth (cells counted on Coulter Counter after six days)
Experimental: The experiment was conducted in triplicate in the manner described with respect to Table I.
A2780 cells were well-plated (35 mm disnes) and 24 hours later the cells were treated with cisplatin for one hour, washed out and then treated with 6 concentrations of from 1 μM to 100 μM increased in equal increments of a nucleoside analog in saline. Cells were then washed and incubated for six days. The cells were counted on a Coulter Counter and the experiment was done in triplicate.
as §1

HCF7S = experiment: Inhibition of cell growth, Table VI
A2780DDP [3] = experiment: Inhibition of cell growth (cells counted on Coulter Counter after six days); conditions: for Ratio (degree of resistance or cross-resistance): A2780DDP vs A2780S EC50
Experimental: The experiment was conducted in triplicate in the manner described with respect to Table I. […]
as §1

A2780S [4] = experiment: Dual labeled (14C/3H) DNA synthesis and degradation in response to cisplatin
Experimental: (§2) A dual labeled (^14C/^3H) experiment was designed to measure simultaneously DNA synthesis and degradation in response to cisplatin. […] A2780S cells respond to cisplatin with a modest degradation (10%) of (^14C) DNA over 3 hrs. In contrast, A2780DDP degradation 40.5% of the (^14C) DNA in 3 hrs. […] Transplatin at equimolar concentrations (20 μM) had no influence on DNA synthesis or degradation in A2780 cells.

CEMMTX = experiment: Cytotoxicity by continuous exposure in CEM cells
Experimental: CEM cells were made 15.8-fold resistant to methotrexate (MTX) by weekly (2 hr) pulses and cloned in soft agar. The optimal growth requirements for the CEMS/S and CEM/MTX for folinic acid cells were 2 nM and 10 nM. If the cells were grown in higher concentrations of folinic acid (10^−7 M), both cell lines were correspondingly more resistant to MTX. In contrast, fluoropyrimidine cytotoxicity was enhanced in both cell lines with increasing concentrations of folinic acid from 10^−7 M to 10^−6 M. At concentrations of folinic acid that are not optimal for cell growth, both CEM cell lines are hypersensitive to fluoropyrimidines. In addition, CEM/MTX cells are more hypersensitive to fluoropyrimidines than CEM/S cells at (10^−8 M) folinic acid or lower concentrations.
(§3) There was an increase in DHFR enzyme activity (11.07-fold) due to an eight-fold increase in DHFR gene amplification and expression in CEM/MTX cells. There was also a corresponding 2-fold increase in thymidine kinase (TK) enzyme activity and TK gene expression in CEM/MTX cells. […] CEM cells untreated with nucleoside analog were the controls (100%). The experiment was performed three separate times in duplicate.

K562-DDP = experiment: Inhibition of cell growth, Table VI; conditions: for EC50: K562-DDP
CEMS = experiment: Cytotoxicity by continuous exposure in CEM cells
Experimental: as §3

HCT8DDP = experiment: Inhibition of cell growth (cells counted on Coulter Counter after six days); conditions: for EC50: HCT8-DDP, read-out: EC50
Experimental: as §1

HCT8S = experiment: as above; conditions: read-out: EC50
Experimental: as §1

A2780 cells = experiment: Dual labeled (14C/3H) DNA synthesis and degradation; conditions: 20 μM
Experimental: as §2

[5] = A2780DDP, 0 min after cisplatin (20 μM) treatment
[6] = A2780DDP, 45 min after cisplatin (20 μM) treatment
[7] = A2780DDP, 90 min after cisplatin (20 μM) treatment
[8] = A2780DDP, 180 min after cisplatin (20 μM) treatment
[9] = cisplatin 20 μM, treatment time 0 min
[10] = cisplatin 20 μM, treatment time 45 min
[11] = cisplatin 20 μM, treatment time 90 min
[12] = cisplatin 20 μM, treatment time 180 min
[13] = Homo sapiens, (C) continuous exposure

Cc1cn([C@H]2C[C@H](N=[N+]=[N-])[C@@H](CO)O2)c(=O)[nH]c1=O [AZT, 3′ azido-2′, 3′ dideoxythymidine]
Incorporation of labelled nucleoside analog into macromolecules (A2780DDP [1]; [5]): 26.96 | Incorporation of labelled nucleoside analog into macromolecules (A2780DDP [1]; [6]): 31.62 | Incorporation of labelled nucleoside analog into macromolecules (A2780DDP [1]; [7]): 32.31 | Incorporation of labelled nucleoside analog into macromolecules (A2780DDP [1]; [8]): 37.96 | 3H-AZT/DNA A2780DDP (A2780DDP [1]; [9]): 26.96 | 3H-AZT/DNA A2780DDP (A2780DDP [1]; [10]): 31.62 | 3H-AZT/DNA A2780DDP (A2780DDP [1]; [11]): 32.31 | 3H-AZT/DNA A2780DDP (A2780DDP [1]; [12]): 37.96 | EC50 (K562S; (C) continuous exposure): 125 µM | EC50 (K562-araC; (C) continuous exposure): 70 µM | EC50 (HCF-7 DDP; (C) continuous exposure): 10 µM | EC50 (CEMDDP): N.E.** | EC50 (K562-VP16; (C) continuous exposure): 200 µM | EC50 (A2780S [2]; A2780S, (C) continuous exposure, read-out: EC50): 10 µM | EC50 (A2780S [2]; continuous exposure, proliferation during 6 days, mean + SD, read-out: EC50 A2780S): 10 µM | EC50 (HCF7S; (C) continuous exposure): 65 µM | EC50 (A2780DDP [3]; A2780 DDP, (C) continuous exposure, read-out: EC50): 510 µM | EC50 (A2780DDP [3]; continuous exposure, proliferation during 6 days, mean + SD, read-out: EC50 A2780DDP): 510 µM | increased incorporation of (3H) AZT into TCA material (A2780S [4]; A2780S, in response to cisplatin 20 μM): 18.8% | 3H-AZT/DNA A2780S (A2780S [4]; [9]): 7.79 | 3H-AZT/DNA A2780S (A2780S [4]; [10]): 6.27 | 3H-AZT/DNA A2780S (A2780S [4]; [11]): 7.23 | 3H-AZT/DNA A2780S (A2780S [4]; [12]): 9.25 | EC50 (CEMMTX; CEM/MTX cells, continuous exposure (1-160 μM)): 25 µM | EC50 (K562-DDP; (C) continuous exposure): 150 µM | cytotoxicity (CEMS; CEM/S cells, continuous exposure up to 160 μM): minimal cytotoxicity | EC50 (CEMS; CEMS, continuous exposure): N.E.** | EC50 (HCT8DDP; (C) continuous exposure): 11 µM | EC50 (HCT8S; (C) continuous exposure): 5.5 µM

N.N.[Cl][Pt][Cl] [Cisplatin, cisplatin]
degradation of (14C) DNA (A2780DDP [1]; A2780DDP, cisplatin 20 μM, in 3 hrs): 40.5% | 14C-Tdr/DNA A2780DDP (A2780DDP [1]; [9]): 17.78 | 14C-Tdr/DNA A2780DDP (A2780DDP [1]; [10]): 14.44 | 14C-Tdr/DNA A2780DDP (A2780DDP [1]; [11]): 12.59 | 14C-Tdr/DNA A2780DDP (A2780DDP [1]; [12]): 10.57 | EC50 (K562S; (1h) exposure): 6 µM | EC50 (K562-araC; (1h) exposure): 25 µM | EC50 (HCF-7 DDP; (1h) exposure): 35 µM | fold resistance, cispt resistant vs sensitive MCF7 cells (HCF-7 DDP; MCF7 human breast cancer cells): 2.3 fold | EC50 (K562-VP16; (1h) exposure): 15 µM | EC50 (A2780S [2]; A2780S, (1h) exposure, read-out: EC50): 7 µM | EC50 (A2780S [2]; treatment time 1 hr, proliferation during 6 days, mean + SD, read-out: EC50 A2780S): 7 µM | EC50 (HCF7S; (1h) exposure): 15 µM | Ratio (degree of resistance or cross-resistance) (A2780DDP [3]; treatment time 1 hr): +12.8 | EC50 (A2780DDP [3]; A2780 DDP, (1h) exposure, read-out: EC50): 90 µM | fold resistance, cisplatin resistant vs sensitive A2780 cells (A2780DDP [3]; A2780 ovarian carcinoma cells): > 12 fold | EC50 (A2780DDP [3]; treatment time 1 hr, proliferation during 6 days, mean + SD, read-out: EC50 A2780DDP): 90 µM | degradation of (14C) DNA (A2780S [4]; A2780S, cisplatin 20 μM, over 3 hrs): 10% | 14C-Tdr/DNA A2780S (A2780S [4]; [9]): 6.49 | 14C-Tdr/DNA A2780S (A2780S [4]; [10]): 6.21 | 14C-Tdr/DNA A2780S (A2780S [4]; [11]): 5.71 | 14C-Tdr/DNA A2780S (A2780S [4]; [12]): 6.06 | EC50 (K562-DDP; (1h) exposure): 15 µM | EC50 (HCT8DDP; (1h) exposure): 100 µM | fold resistance, cispt resistant vs sensitive HCT8 cells (HCT8DDP; HCT8 human colon cancer cells): 2.7 fold | EC50 (HCT8S; (1h) exposure): 30 µM

N.N.[Cl][Pt+2][Cl] [Transplatin]
influence on DNA synthesis or degradation (A2780 cells): no influence

Nc1ccn([C@H]2CC[C@@H](CO)O2)c(=O)n1 [ddC, dideoxycytidine]
Incorporation of labelled nucleoside analog into macromolecules (A2780DDP [1]; [5]): 15.09 | Incorporation of labelled nucleoside analog into macromolecules (A2780DDP [1]; [6]): 36.94 | Incorporation of labelled nucleoside analog into macromolecules (A2780DDP [1]; [7]): 42.61 | Incorporation of labelled nucleoside analog into macromolecules (A2780DDP [1]; [8]): 45.93 | EC50 (K562S; [13]): 25 µM | EC50 (K562-araC; [13]): > 300 µM | EC50 (HCF-7 DDP; [13]): > 100 µM | EC50 (K562-VP16; [13]): 100 µM | EC50 (A2780S [2]; Homo sapiens, A2780S, 144 h, continuous exposure, proliferation during 6 days, mean + SD, read-out: EC50 A2780S): 1.5 µM | EC50 (A2780S [2]; Homo sapiens, A2780S, (C) continuous exposure, read-out: EC50): 1.5 µM | EC50 (HCF7S; [13]): 2.5 µM | Ratio (degree of resistance or cross-resistance) (A2780DDP [3]; continuous exposure): +2.6 | EC50 (A2780DDP [3]; Homo sapiens, 144 h, continuous exposure, proliferation during 6 days, mean + SD, read-out: EC50 A2780DDP): 4 µM | EC50 (A2780DDP [3]; Homo sapiens, A2780 DDP, (C) continuous exposure, read-out: EC50): 4 µM | EC50 (K562-DDP; [13]): 5 µM | factor more sensitive, cispt resistant vs sensitive K562 cells (K562-DDP; K562 human leukemia cells): 5 | EC50 (HCT8DDP; [13]): 23 µM | EC50 (HCT8S; [13]): 2 µM

CN(Cc1cnc2nc(N)nc(N)c2n1)c1ccc(C(=O)N[C@@H](CCC(=O)O)C(=O)O)cc1 [methotrexate]
fold resistance of CEM/MTX cells (CEMMTX; CEM cells made resistant by weekly (2 hr) pulses): 15.8 fold
